ChEMBL document CHEMBL1667806, “Synthesis and evaluation of anti-tubercular activity of new dithiocarbamate sugar derivatives” (2011)
≈ marks a conversion by molar mass, not a printed value.

Key:
Assay type in all cases: functional
[1] = test system: Mycobacterium tuberculosis; test: Antimycobacterial activity against INH, RFP, SM, EB, PAS-resistant Mycobacterium tuberculosis isolate 18
[2] = test system: Mycobacterium tuberculosis; test: Antimycobacterial activity against INH, RFP-resistant Mycobacterium tuberculosis isolate 17
[3] = test system: Mycobacterium tuberculosis; test: Antimycobacterial activity against INH, RFP, EB-resistant Mycobacterium tuberculosis isolate 12
[4] = test system: Mycobacterium tuberculosis; test: Antimycobacterial activity against INH, RFP, EB, LVFX, CPFX-resistant Mycobacterium tuberculosis isolate 4
[5] = test system: Mycobacterium tuberculosis; test: Antimycobacterial activity against INH, RFP, EB, KM, LVFX, SPFX, CPFX-resistant Mycobacterium tuberculosis isolate 5
[6] = test system: Mycobacterium tuberculosis; test: Antimycobacterial activity against RFP-resistant Mycobacterium tuberculosis isolate 10
[7] = test system: Mycobacterium tuberculosis; test: Antimycobacterial activity against INH, RFP, EB, LVFX, SPFX, CPFX-resistant Mycobacterium tuberculosis isolate 2
[8] = test system: Mycobacterium tuberculosis; test: Antimycobacterial activity against INH, RFP, EB, LVFX, SPFX, CPFX-resistant Mycobacterium tuberculosis isolate 1
[9] = test system: Mycobacterium tuberculosis; test: Antimycobacterial activity against INH, RFP, SM, EB, KM, LVFX, SPFX, CPFX-resistant Mycobacterium tuberculosis isolate 6
[10] = test system: Mycobacterium tuberculosis; test: Antimycobacterial activity against INH, RFP, EB-resistant Mycobacterium tuberculosis isolate 14
[11] = test system: Mycobacterium tuberculosis; test: Antimycobacterial activity against INH, RFP, SM, EB-resistant Mycobacterium tuberculosis isolate 13
[12] = test system: Mycobacterium tuberculosis; test: Antimycobacterial activity against INH, RFP, SM, EB, PAS, LVFX-resistant Mycobacterium tuberculosis isolate 19
[13] = test system: Mycobacterium tuberculosis; test: Antimycobacterial activity against INH, RFP, EB, LVFX, SPFX, CPFX-resistant Mycobacterium tuberculosis isolate 15
[14] = test system: Mycobacterium tuberculosis; test: Antimycobacterial activity against INH, RFP, EB, KM, LVFX, SPFX, CPFX-resistant Mycobacterium tuberculosis isolate 11
[15] = test system: Mycobacterium tuberculosis; test: Antimycobacterial activity against RFP-resistant Mycobacterium tuberculosis isolate 7
[16] = test system: Mycobacterium tuberculosis; test: Antimycobacterial activity against INH, RFP, SM, EB, KM, PAS, EVM, LVFX-resistant Mycobacterium tuberculosis isolate 16
[17] = test system: Mycobacterium tuberculosis; test: Antimycobacterial activity against INH, RFP, ETH-resistant Mycobacterium tuberculosis isolate 20
[18] = test system: Mycobacterium tuberculosis; test: Antimycobacterial activity against INH, RFP, KM, LVFX, SPFX, CPFX-resistant Mycobacterium tuberculosis isolate 9
[19] = test system: Mycobacterium tuberculosis; test: Antimycobacterial activity against RFP-resistant Mycobacterium tuberculosis isolate 8
[20] = test system: Mycobacterium tuberculosis; test: Antimycobacterial activity against RFP, EB-resistant Mycobacterium tuberculosis isolate 3

Compound	MIC [1] [µg/mL]	MIC [2] [µg/mL]	MIC [3] [µg/mL]	MIC [4] [µg/mL]	MIC [5] [µg/mL]	MIC [6] [µg/mL]	MIC [7] [µg/mL]	MIC [8] [µg/mL]	MIC [9] [µg/mL]	MIC [10] [µg/mL]	MIC [11] [µg/mL]	MIC [12] [µg/mL]	MIC [13] [µg/mL]	MIC [14] [µg/mL]	MIC [15] [µg/mL]	MIC [16] [µg/mL]	MIC [17] [µg/mL]	MIC [18] [µg/mL]	MIC [19] [µg/mL]	MIC [20] [µg/mL]
N.S=C(S)N1CCCC1 [PYRROLIDINE DITHIOCARBAMIC ACID, AMMONIUM SALT]	0.2	0.2	0.2	0.4	0.2	0.4	0.2	0.2	0.2	0.2	0.2	0.4	0.2	0.2	0.2	0.2	0.2	0.2	0.2	0.2
CC(=O)N[C@@H]1[C@@H](O)[C@H](O)[C@@H](CO)O[C@H]1SC(=S)N1CCCC1	6.25 (≈ 17.8 µM)	6.25 (≈ 17.8 µM)	6.25 (≈ 17.8 µM)	12.5 (≈ 35.7 µM)	6.25 (≈ 17.8 µM)	12.5 (≈ 35.7 µM)	6.25 (≈ 17.8 µM)	6.25 (≈ 17.8 µM)	6.25 (≈ 17.8 µM)	6.25 (≈ 17.8 µM)	6.25 (≈ 17.8 µM)	12.5 (≈ 35.7 µM)	6.25 (≈ 17.8 µM)	12.5 (≈ 35.7 µM)	6.25 (≈ 17.8 µM)	6.25 (≈ 17.8 µM)	6.25 (≈ 17.8 µM)	6.25 (≈ 17.8 µM)	6.25 (≈ 17.8 µM)	6.25 (≈ 17.8 µM)
